Biological target: T1, hSGLT1 (Homo sapiens, UniProt P13866)
T1 sequence (P13866 1-664): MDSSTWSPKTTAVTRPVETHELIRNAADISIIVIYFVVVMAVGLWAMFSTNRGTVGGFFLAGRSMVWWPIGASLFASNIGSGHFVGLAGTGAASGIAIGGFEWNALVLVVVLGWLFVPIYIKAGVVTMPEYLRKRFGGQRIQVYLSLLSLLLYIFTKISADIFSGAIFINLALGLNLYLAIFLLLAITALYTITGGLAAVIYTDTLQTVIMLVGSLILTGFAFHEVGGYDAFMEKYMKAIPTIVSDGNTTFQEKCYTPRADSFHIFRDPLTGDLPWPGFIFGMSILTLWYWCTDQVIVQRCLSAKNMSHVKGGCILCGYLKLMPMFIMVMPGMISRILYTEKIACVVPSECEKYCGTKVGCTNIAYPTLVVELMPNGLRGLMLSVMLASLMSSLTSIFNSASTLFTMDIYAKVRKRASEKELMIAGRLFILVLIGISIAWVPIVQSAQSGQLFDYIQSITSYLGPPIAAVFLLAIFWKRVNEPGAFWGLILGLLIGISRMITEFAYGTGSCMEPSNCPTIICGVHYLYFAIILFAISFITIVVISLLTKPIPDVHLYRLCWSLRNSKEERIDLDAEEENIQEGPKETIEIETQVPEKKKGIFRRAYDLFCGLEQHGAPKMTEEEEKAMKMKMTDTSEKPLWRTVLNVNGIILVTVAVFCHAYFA
Test: 1-NBDG uptake inhibition in COS-7 cells expressing hSGLT1, single dose […]
Type: cell-based
Conditions: COS-7, read-out: % Uptake via / hSGLT1

activity at 50 µM: 33.1 ± 0.85%
SMILES: O=C(/C=C/c1ccc(O)cc1)OC[C@H]1O[C@@H](Oc2c(-c3ccc(O)cc3)oc3cc(O)cc(O)c3c2=O)[C@H](O)[C@@H](O)[C@@H]1O [compound 15, Tiliroside]

— PMC9261792 (Journal of Food and Drug Analysis, 2021)
